Reference: PubChem BioAssay AID1845210 (Molecular Pharmacology Branch, DTP, NCI, 2023)
pIC50: −log10 of the molar value. Where “and” joins values, the source holds several entries; their conditions need not be identical. Equal values may be shown once.

System: NCI-H226 complex tumor spheroids, viability
Assay: Anticancer human tumor NCI-H226 cell line growth inhibition;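 note: spheroids exposed to compound for 7 days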;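 for viability, T/C: 100% = DMSO vehicle control viability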
Conditions: for viability, T/C: stronger effect = lower value
Procedure, shortened: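 Single agents and combinations were tested on spheroids built from tumor cells plus HUVEC and hMSC, at half-log dilutions starting at or near clinical Cmax, else 10 microM; final DMSO 0.25% (v/v).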

[2H]c1nc(C)nc([2H])c1-c1cc(NC[C@@H](C)c2cccc3c(C(=O)NC)ccnc23)ncn1 + Cn1nnc2c(C(N)=O)ncn2c1=O
pIC50 (curve of first compound, second compound 1 µM): < 5.00
pIC50 (curve of first compound, second compound 3.16 µM): < 5.00
pIC50 (curve of first compound, second compound 10 µM): < 5.00
pIC50 (curve of first compound, second compound 31.6 µM): < 5.00
pIC50 (curve of first compound, second compound 100 µM): < 5.00
viability, T/C (second compound 1 µM, first compound 0.0316 µM): 115%
viability, T/C (second compound 1 µM, first compound 0.1 µM): 107%
viability, T/C (second compound 1 µM, first compound 0.316 µM): 118%
viability, T/C (second compound 1 µM, first compound 1 µM): 112%
viability, T/C (second compound 1 µM, first compound 3.16 µM): 114%
viability, T/C (second compound 1 µM, first compound 10 µM): 121%
viability, T/C (second compound 3.16 µM, first compound 0.0316 µM): 114%
viability, T/C (second compound 3.16 µM, first compound 0.1 µM): 114%
viability, T/C (second compound 3.16 µM, first compound 0.316 µM): 113%
viability, T/C (second compound 3.16 µM, first compound 1 µM): 101%
viability, T/C (second compound 3.16 µM, first compound 3.16 µM): 123%
viability, T/C (second compound 3.16 µM, first compound 10 µM): 122%
viability, T/C (second compound 10 µM, first compound 0.0316 µM): 112%
viability, T/C (second compound 10 µM, first compound 0.1 µM): 122%
viability, T/C (second compound 10 µM, first compound 0.316 µM): 115%
viability, T/C (second compound 10 µM, first compound 1 µM): 110%
viability, T/C (second compound 10 µM, first compound 3.16 µM): 113%
viability, T/C (second compound 10 µM, first compound 10 µM): 115%
viability, T/C (second compound 31.6 µM, first compound 0.0316 µM): 103%
viability, T/C (second compound 31.6 µM, first compound 0.1 µM): 102%
viability, T/C (second compound 31.6 µM, first compound 0.316 µM): 119%
viability, T/C (second compound 31.6 µM, first compound 1 µM): 120%
viability, T/C (second compound 31.6 µM, first compound 3.16 µM): 123%
viability, T/C (second compound 31.6 µM, first compound 10 µM): 116%
viability, T/C (second compound 100 µM, first compound 0.0316 µM): 141%
viability, T/C (second compound 100 µM, first compound 0.1 µM): 129%
viability, T/C (second compound 100 µM, first compound 0.316 µM): 112%
viability, T/C (second compound 100 µM, first compound 1 µM): 116%
viability, T/C (second compound 100 µM, first compound 3.16 µM): 117%
viability, T/C (second compound 100 µM, first compound 10 µM): 121%

CC(C)n1c(=O)n(C)c2cnc3cc(F)c(-c4ccc(OCCCN5CCCCC5)nc4)cc3c21
viability, T/C (compound 0.0316 µM): 99.6% and 101% and 93.1%
viability, T/C (compound 0.1 µM): 103% and 96.9% and 104%
viability, T/C (compound 0.316 µM): 103% and 112% and 102%
viability, T/C (compound 1 µM): 111% and 98% and 84.2%
viability, T/C (compound 3.16 µM): 107% and 97.5% and 102%
pIC50 (curve of compound): < 5.00 and 5.24 and 5.12

CC1COCCN1c1cc(-c2ccnn2C)c2ccnc(-c3ccn[nH]3)c2n1 (stereo not drawn) + CC[C@@]1(O)C(=O)OCc2c1cc1n(c2=O)Cc2cc3c(CN(C)C)c(O)ccc3nc2-1
pIC50 (curve of first compound, second compound 0.003 µM): 5.98
pIC50 (curve of first compound, second compound 0.00949 µM): 5.96
pIC50 (curve of first compound, second compound 0.03 µM): 6.08
pIC50 (curve of first compound, second compound 0.0949 µM): 6.09
pIC50 (curve of first compound, second compound 0.3 µM): 6.29
viability, T/C (second compound 0.003 µM, first compound 0.0316 µM): 97.2%
viability, T/C (second compound 0.003 µM, first compound 0.1 µM): 81.5%
viability, T/C (second compound 0.003 µM, first compound 0.316 µM): 74%
viability, T/C (second compound 0.003 µM, first compound 1 µM): 47.6%
viability, T/C (second compound 0.003 µM, first compound 3.16 µM): 39.2%
viability, T/C (second compound 0.003 µM, first compound 10 µM): 36.1%
viability, T/C (second compound 0.00949 µM, first compound 0.0316 µM): 93.8%
viability, T/C (second compound 0.00949 µM, first compound 0.1 µM): 85.1%
viability, T/C (second compound 0.00949 µM, first compound 0.316 µM): 69.3%
viability, T/C (second compound 0.00949 µM, first compound 1 µM): 52.5%
viability, T/C (second compound 0.00949 µM, first compound 3.16 µM): 36.1%
viability, T/C (second compound 0.00949 µM, first compound 10 µM): 33.4%
viability, T/C (second compound 0.03 µM, first compound 0.0316 µM): 83.1%
viability, T/C (second compound 0.03 µM, first compound 0.1 µM): 76.3%
viability, T/C (second compound 0.03 µM, first compound 0.316 µM): 63.6%
viability, T/C (second compound 0.03 µM, first compound 1 µM): 48.1%
viability, T/C (second compound 0.03 µM, first compound 3.16 µM): 36.8%
viability, T/C (second compound 0.03 µM, first compound 10 µM): 37.9%
viability, T/C (second compound 0.0949 µM, first compound 0.0316 µM): 82.2%
viability, T/C (second compound 0.0949 µM, first compound 0.1 µM): 71.3%
viability, T/C (second compound 0.0949 µM, first compound 0.316 µM): 65.1%
viability, T/C (second compound 0.0949 µM, first compound 1 µM): 46.1%
viability, T/C (second compound 0.0949 µM, first compound 3.16 µM): 37.4%
viability, T/C (second compound 0.0949 µM, first compound 10 µM): 34.9%
viability, T/C (second compound 0.3 µM, first compound 0.0316 µM): 71.2%
viability, T/C (second compound 0.3 µM, first compound 0.1 µM): 66.9%
viability, T/C (second compound 0.3 µM, first compound 0.316 µM): 56.8%
viability, T/C (second compound 0.3 µM, first compound 1 µM): 41.4%
viability, T/C (second compound 0.3 µM, first compound 3.16 µM): 36.3%
viability, T/C (second compound 0.3 µM, first compound 10 µM): 38.1%

CC1COCCN1c1cc(-c2ccnn2C)c2ccnc(-c3ccn[nH]3)c2n1 (stereo not drawn)
viability, T/C (compound 0.0316 µM): 93.9% and 94.7% and 94.8%
viability, T/C (compound 0.1 µM): 102% and 91% and 82.2%
viability, T/C (compound 0.316 µM): 86% and 74% and 68.6%
viability, T/C (compound 1 µM): 60.4% and 53.3% and 47.3%
viability, T/C (compound 3.16 µM): 52.5% and 44.6% and 45.4%
viability, T/C (compound 10 µM): 42.9% and 39.2% and 35.2%
pIC50 (curve of compound): 5.56 and 5.82 and 5.95

Cn1nnc2c(C(N)=O)ncn2c1=O
viability, T/C (compound 3.16 µM): 112% [middle of 10 runs]
viability, T/C (compound 10 µM): 108% [middle of 10 runs]
viability, T/C (compound 31.6 µM): 110% [middle of 10 runs]
viability, T/C (compound 100 µM): 109% [middle of 10 runs]
pIC50 (compound alone, run of 12/02/2019): < 4.00
